This passage reports IC50, inhibition and Activity results from ChEMBL document CHEMBL1671638, “Cloning, expression, and characterization of Babesia gibsoni dihydrofolate reductase-thymidylate synthase: inhibitory effect of antifolates on its catalytic activity and parasite proliferation” (Antimicrob Agents Chemother, 2008).

The nature of assay [1]: (§1) Inhibition of Babesia gibsoni Dihydrofolate reductase-thymidylate synthase expressed in Escherichia coli BL21.
Assay [2] deals with Babesia gibsoni. The description is as §1.
In assay [3] the test system is Babesia gibsoni. Kind of assay: Antiparasitic activity against Babesia gibsoni infected in dog erythrocytes assessed as growth inhibition at 50 nM by Giemsa staining based microscopy. The format is functional, organism-based.
Assay [4] relates to Babesia gibsoni. Kind of assay: Antiparasitic activity against Babesia gibsoni infected in dog erythrocytes assessed as growth inhibition at 150 nM by Giemsa staining based microscopy. The format is functional, organism-based.
The subject of assay [5] is Babesia gibsoni. The experiment in a line: Antiparasitic activity against Babesia gibsoni infected in dog erythrocytes assessed as growth inhibition at 20 uM by Giemsa staining based microscopy. The format is functional, organism-based.
For assay [6], the system named is Babesia gibsoni. The experiment in a line: Antiparasitic activity against Babesia gibsoni infected in dog erythrocytes assessed as growth inhibition at 80 uM by Giemsa staining based microscopy. The format is functional, organism-based.

By IC50 is commonly meant the concentration needed to halve the response being measured. Higher therefore signals a need for much substance.

Structures are written as SMILES. Calls of active or inactive are those of the source. No cut-off for these calls is given here.

`CN(Cc1cnc2nc(N)nc(N)c2n1)c1ccc(C(=O)N[C@@H](CCC(=O)O)C(=O)O)cc1` [METHOTREXATE]: in assay [1], inhibition was half-maximal at 0.0686 µM (IC50). Further, the inhibition entry in assay [2] is “Dose-dependent effect”. The inhibition result in assay [3] and in assay [4] was “Active” each time.

As for `CCc1nc(N)nc(N)c1-c1ccc(Cl)cc1` [PYRIMETHAMINE], in assay [1], the 50% inhibitory concentration (IC50) worked out at 0.05 µM. In addition, the inhibition entry in assay [2] is “Dose-dependent effect”. Besides, the result in assay [5] and in assay [6] was Active.

In assay [1], `COc1cc(Cc2cnc(N)nc2N)cc(OC)c1OC` [TRIMETHOPRIM] gave an IC50 of 0.055 µM. In assay [2], the inhibition entry is “Dose-dependent effect”. Moreover, the result in assay [5] and in assay [6] was Active.
